Source: patent publication US20250361217A1, “FATTY ACID COMPOUNDS” (University of Pittsburgh - Of the Commonwealth System of …, priority 2022, published 2025)

Test system: HFD model in C57BL/6J mice
Assay: Liver histology (H&E) scores of steatosis, ballooning, inflammation in HFD mice
Assay type: in vivo
Conditions: 50 mg/kg
Source text: Male C57BL/6J mice were purchased from Jackson Laboratory (Bar Harbor, ME, USA). Mice were acclimated for a week before being randomized to receive either a low-fat diet (LFD) or a high-fat diet (HFD) purchased from Research Diets (New Brunswick, NJ, USA). Obesity was induced by the HFD (D12492, with 60% of the adjusted calories derived from fat) for 16 weeks beginning at age of 8 weeks. Age-matched controls were maintained on a LFD (D12450J, matching the sucrose level of D12492). While maintaining the diet, mice under HFD were divided into 4 groups (n=8 per group) and were treated every 2 days by oral gavage for 7 weeks with 100 μl of 11D3 (50 mg/kg), 11U3 (50 mg/kg), or 11U3-2M (50 mg/kg) formulated in a solution of 2:1 of polyethylene glycol (Fisher Scientific, PEG400 #p167-1) and saline, containing 1.5% of octanoic acid (TCI, #00027). Control groups received 100 μl of PEG400/saline/octanoic acid as the vehicle (Veh). LFD mice were divided into 2 groups (n=8 per group) and treated with veh or 11D3 (50 mg/kg) to detect any effect of natural FuFA in LFD. […] Food intake, water consumption, and mouse weight were monitored every week. […]
The fixed Liver tissues embedded in paraffin were cut into 4 μm sections. […] Quantifications and scores of liver steatosis, ballooning, and inflammation were performed blindly by a pathologist based on 3 parameters—steatosis, inflammation, hepatocyte degeneration.

CCCc1ccc(CCCCCCCCCC(C)(C)C(=O)O)o1 [11U3-2M, 2,2-Dimethyl-11-(5-propylfuran-2-yl)undecanoic acid] was tested, and the “ballooning degeneration of hepatocytes vs HFD+veh” value was “significantly alleviated” and the “liver steatosis vs HFD+veh” value was “significantly alleviated”.
